Data as given in patent US20250065246A1, “SOLVENT COMPOSITION FOR NATURAL MATERIAL EXTRACTION” (GS CALTEX CORPORATION, priority 2018, published 2025).

Assays:
[1] = test system: skin; assay: Evaluation of skin irritation, patch test (PCPC Safety Evaluation Guidelines, ICDRG standard); format: in vivo, human; details: patch test on 32 people, 30 wt %
Method: To evaluate skin irritation caused by solvent compositions for extracting a natural material in example 1 and comparative examples 1, 2 and 3, a patch test was conducted on a total of 32 people. The solvent compositions for extracting a natural material in example 1 and comparative examples 1, 2 and 3 were all at a concentration of 30 wt %, and the patch test was performed under the PCPC Safety Evaluation Guidelines and the ICDRG standard.

[2] = test system: A. niger; assay: Evaluation of antibacterial property, minimum inhibitory concentration; format: cell-based
Method: (§1) To evaluate an antibacterial property of the solvent compositions for extracting a natural material in examples 2 and 3, and comparative examples 3 and 4, minimum inhibitory concentration (MIC; %) of a total of five microorganisms was measured. A lower minimum inhibitory concentration (%) may denote a more excellent antibacterial property.

[3] = test system: P. aeruginosa; assay: as above; format: cell-based
Method: as §1

[4] = test system: C. albicans; assay: as above; format: cell-based
Method: as §1

[5] = test system: S. aureus; assay: as above; format: cell-based
Method: as §1

[6] = test system: E. coli; assay: as above; format: cell-based
Method: as §1

Compound	Cases with skin irritation [1]	Skin irritation category under ICDRG standard [1]	Skin irritation index 30 minutes [1]	Skin irritation index 24 hours [1]	Skin irritation index 48 hours [1]	A. niger (MIC %) [2] [%]	P. aeruginosa (MIC %) [3] [%]	C. albicans (MIC %) [4] [%]	S. aureus (MIC %) [5] [%]	E. coli (MIC %) [6] [%]	Cases with skin irritation ([1]; listed as comparative example 3)
OCCCO [Comparative example 2, 1,3-propanediol]	0	no skin irritation	0.0	0.0	0.0						
CC(O)C(C)O (single isomer, unassigned) [Example 3, meso-2,3-butanediol]						12.5	6.25	12.5	25	12.5	
CC(O)C(C)O (centres unmarked) [compound 1, 2,3-butanediol]	0	no skin irritation	0.0	0.0	0.0						
CC(O)C(C)O (single isomer, unassigned) [Example 2, levo-2,3-butanediol]						12.5	10	12.5	25	15	
OCCCO [Comparative example 4, 1,3-propanediol]						25	12.5	25	25	22	
CC(O)C(C)O (centres unmarked) [Example 1, 2,3-butanediol]	0	no skin irritation	0.0	0.0	0.0						
CC(O)CCO (centres unmarked) [Comparative example 3, 1,3-butanediol]	2	minor skin irritation	0.5	0.0	0.0	12.5	12.5	12.5	25	17.5	two
